Experimental data taken from PubChem BioAssay (NCI).
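Grown in 96-well plates, cells were treated for 48 hours with each compound at five concentrations. Insufficient inhibition: endpoint recorded as highest concentration tested. TGI denotes the concentration required for complete inhibition of growth.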

Tests used:
Test in all cases: DTP human tumour cell line panel, 48 h
CCRF-CEM leukemia = tested on: CCRF-CEM leukemia
SK-OV-3 ovarian = tested on: SK-OV-3 ovarian
MDA-N = tested on: MDA-N
SW-620 colon = tested on: SW-620 colon
TK-10 renal = tested on: TK-10 renal
NCI-H522 lung = tested on: NCI-H522 lung
OVCAR-4 ovarian = tested on: OVCAR-4 ovarian
UACC-62 melanoma = tested on: UACC-62 melanoma
MDA-MB-231 breast = tested on: MDA-MB-231 breast
NCI-H23 lung = tested on: NCI-H23 lung
SK-MEL-28 melanoma = tested on: SK-MEL-28 melanoma
HOP-62 NSCLC = tested on: HOP-62 NSCLC
786-0 renal = tested on: 786-0 renal
HL-60(TB) leukemia = tested on: HL-60(TB) leukemia
UACC-257 melanoma = tested on: UACC-257 melanoma
KM12 colon = tested on: KM12 colon
NCI-H226 lung = tested on: NCI-H226 lung
MDA-MB-435 = tested on: MDA-MB-435
K-562 leukemia = tested on: K-562 leukemia
HCT-116 colon = tested on: HCT-116 colon
RPMI-8226 leukemia = tested on: RPMI-8226 leukemia
COLO 205 colon = tested on: COLO 205 colon
HOP-92 NSCLC = tested on: HOP-92 NSCLC
SF-268 CNS = tested on: SF-268 CNS
SNB-19 CNS = tested on: SNB-19 CNS
OVCAR-5 ovarian = tested on: OVCAR-5 ovarian
BT-549 breast = tested on: BT-549 breast
EKVX NSCLC = tested on: EKVX NSCLC
A498 renal = tested on: A498 renal
IGROV1 ovarian = tested on: IGROV1 ovarian
HS 578T breast = tested on: HS 578T breast
A549 NSCLC = tested on: A549 NSCLC
HCC-2998 colon = tested on: HCC-2998 colon
SK-MEL-5 melanoma = tested on: SK-MEL-5 melanoma
OVCAR-8 ovarian = tested on: OVCAR-8 ovarian
PC-3 prostate = tested on: PC-3 prostate
CAKI-1 renal = tested on: CAKI-1 renal
M14 melanoma = tested on: M14 melanoma
MOLT-4 leukemia = tested on: MOLT-4 leukemia
MCF7 breast = tested on: MCF7 breast
RXF 393 renal = tested on: RXF 393 renal
SR leukemia = tested on: SR leukemia
MALME-3M melanoma = tested on: MALME-3M melanoma
DU-145 prostate = tested on: DU-145 prostate
LOX IMVI melanoma = tested on: LOX IMVI melanoma
U251 CNS = tested on: U251 CNS
SNB-75 CNS = tested on: SNB-75 CNS
HCT-15 colon = tested on: HCT-15 colon
HT29 colon = tested on: HT29 colon
UO-31 renal = tested on: UO-31 renal
NCI/ADR-RES ovarian = tested on: NCI/ADR-RES ovarian
OVCAR-3 ovarian = tested on: OVCAR-3 ovarian
SF-295 CNS = tested on: SF-295 CNS
ACHN renal = tested on: ACHN renal
NCI-H460 lung = tested on: NCI-H460 lung
SF-539 CNS = tested on: SF-539 CNS
SN12C renal = tested on: SN12C renal
SK-MEL-2 melanoma = tested on: SK-MEL-2 melanoma

Measured: TGI

NC(=Nc1ccc(Cl)cc1)c1ccccc1N
> 100 µM: CCRF-CEM leukemia | SK-OV-3 ovarian | MDA-N | SW-620 colon | TK-10 renal | NCI-H522 lung | OVCAR-4 ovarian | UACC-62 melanoma | MDA-MB-231 breast | NCI-H23 lung | SK-MEL-28 melanoma | HOP-62 NSCLC | 786-0 renal | HL-60(TB) leukemia | UACC-257 melanoma | KM12 colon | NCI-H226 lung | MDA-MB-435 | K-562 leukemia | HCT-116 colon | RPMI-8226 leukemia | COLO 205 colon | HOP-92 NSCLC | SF-268 CNS | SNB-19 CNS | OVCAR-5 ovarian | BT-549 breast | EKVX NSCLC | A498 renal | IGROV1 ovarian | HS 578T breast | A549 NSCLC | HCC-2998 colon | SK-MEL-5 melanoma | OVCAR-8 ovarian | PC-3 prostate | CAKI-1 renal | M14 melanoma | MOLT-4 leukemia | MCF7 breast | RXF 393 renal | SR leukemia | MALME-3M melanoma | DU-145 prostate | LOX IMVI melanoma | U251 CNS | SNB-75 CNS | HCT-15 colon | HT29 colon | UO-31 renal | NCI/ADR-RES ovarian | OVCAR-3 ovarian | SF-295 CNS | ACHN renal | NCI-H460 lung

CCOC(=O)N1CCN(c2ccc3ccc(N)nc3n2)CC1
> 100 µM: CCRF-CEM leukemia | SK-OV-3 ovarian | MDA-N | SW-620 colon | TK-10 renal | NCI-H522 lung | OVCAR-4 ovarian | UACC-62 melanoma | MDA-MB-231 breast | SF-539 CNS | NCI-H23 lung | SK-MEL-28 melanoma | HOP-62 NSCLC | 786-0 renal | HL-60(TB) leukemia | UACC-257 melanoma | KM12 colon | NCI-H226 lung | MDA-MB-435 | K-562 leukemia | HCT-116 colon | RPMI-8226 leukemia | COLO 205 colon | HOP-92 NSCLC | SF-268 CNS | SNB-19 CNS | OVCAR-5 ovarian | BT-549 breast | SN12C renal | EKVX NSCLC | IGROV1 ovarian | HS 578T breast | A549 NSCLC | HCC-2998 colon | OVCAR-8 ovarian | PC-3 prostate | CAKI-1 renal | M14 melanoma | MOLT-4 leukemia | MCF7 breast | SR leukemia | MALME-3M melanoma | DU-145 prostate | LOX IMVI melanoma | SK-MEL-2 melanoma | U251 CNS | SNB-75 CNS | HCT-15 colon | HT29 colon | UO-31 renal | NCI/ADR-RES ovarian | OVCAR-3 ovarian | SF-295 CNS | ACHN renal | NCI-H460 lung

COc1ccc([C@H]2[C@H](C)C3=Nc4ccccc4CN32)cc1
> 100 µM: SW-620 colon | TK-10 renal | NCI-H522 lung | OVCAR-4 ovarian | UACC-62 melanoma | MDA-MB-231 breast | SF-539 CNS | NCI-H23 lung | SK-MEL-28 melanoma | HOP-62 NSCLC | 786-0 renal | HL-60(TB) leukemia | UACC-257 melanoma | KM12 colon | NCI-H226 lung | MDA-MB-435 | K-562 leukemia | HCT-116 colon | RPMI-8226 leukemia | COLO 205 colon | HOP-92 NSCLC | SF-268 CNS | SNB-19 CNS | OVCAR-5 ovarian | BT-549 breast | SN12C renal | EKVX NSCLC | A498 renal | IGROV1 ovarian | HS 578T breast | A549 NSCLC | HCC-2998 colon | SK-MEL-5 melanoma | OVCAR-8 ovarian | PC-3 prostate | CAKI-1 renal | M14 melanoma | MOLT-4 leukemia | MCF7 breast | RXF 393 renal | SR leukemia | MALME-3M melanoma | DU-145 prostate | LOX IMVI melanoma | SK-MEL-2 melanoma | U251 CNS | HCT-15 colon | HT29 colon | UO-31 renal | NCI/ADR-RES ovarian | OVCAR-3 ovarian | SF-295 CNS | ACHN renal | NCI-H460 lung
47.2 µM: MDA-N

CC(=O)Oc1ccc(/C=C/C(=O)NCC(NC(=O)/C=C/c2ccc(OC(C)=O)c(OC(C)=O)c2)C(=O)O)cc1OC(C)=O (centres undefined)
50.1 µM: MOLT-4 leukemia
> 100 µM: CCRF-CEM leukemia | MDA-N | SW-620 colon | TK-10 renal | NCI-H522 lung | OVCAR-4 ovarian | UACC-62 melanoma | MDA-MB-231 breast | SF-539 CNS | NCI-H23 lung | SK-MEL-28 melanoma | HOP-62 NSCLC | 786-0 renal | UACC-257 melanoma | KM12 colon | NCI-H226 lung | MDA-MB-435 | K-562 leukemia | HCT-116 colon | RPMI-8226 leukemia | COLO 205 colon | HOP-92 NSCLC | SF-268 CNS | SNB-19 CNS | OVCAR-5 ovarian | BT-549 breast | SN12C renal | EKVX NSCLC | A498 renal | IGROV1 ovarian | HS 578T breast | A549 NSCLC | HCC-2998 colon | SK-MEL-5 melanoma | OVCAR-8 ovarian | PC-3 prostate | CAKI-1 renal | M14 melanoma | MCF7 breast | RXF 393 renal | SR leukemia | MALME-3M melanoma | DU-145 prostate | LOX IMVI melanoma | SK-MEL-2 melanoma | U251 CNS | HCT-15 colon | HT29 colon | UO-31 renal | NCI/ADR-RES ovarian | OVCAR-3 ovarian | SF-295 CNS | ACHN renal | NCI-H460 lung

CCOP(=O)(OCC)/C(C#N)=C/c1coc2cc(C)cc(C)c2c1=O
> 100 µM: CCRF-CEM leukemia | SK-OV-3 ovarian | MDA-N | SW-620 colon | NCI-H522 lung | OVCAR-4 ovarian | UACC-62 melanoma | MDA-MB-231 breast | NCI-H23 lung | SK-MEL-28 melanoma | HOP-62 NSCLC | 786-0 renal | HL-60(TB) leukemia | UACC-257 melanoma | KM12 colon | NCI-H226 lung | MDA-MB-435 | K-562 leukemia | HCT-116 colon | RPMI-8226 leukemia | COLO 205 colon | HOP-92 NSCLC | SF-268 CNS | SNB-19 CNS | OVCAR-5 ovarian | BT-549 breast | SN12C renal | EKVX NSCLC | A498 renal | IGROV1 ovarian | HS 578T breast | A549 NSCLC | HCC-2998 colon | SK-MEL-5 melanoma | OVCAR-8 ovarian | PC-3 prostate | CAKI-1 renal | M14 melanoma | MOLT-4 leukemia | MCF7 breast | SR leukemia | MALME-3M melanoma | DU-145 prostate | LOX IMVI melanoma | SK-MEL-2 melanoma | U251 CNS | SNB-75 CNS | HT29 colon | UO-31 renal | NCI/ADR-RES ovarian | OVCAR-3 ovarian | SF-295 CNS | ACHN renal | NCI-H460 lung
